Measurements: ChEMBL document CHEMBL1138988, “Assessment of in vitro and in vivo activities in the National Cancer Institute's anticancer screen with respect to chemical structure, target specificity, and mechanism of action” (2006)
The source made the active and inactive calls. The rule behind the calls is not given here.

Key:
[1] = test system: Panel NCI-60 (60 carcinoma cell lines); experiment: Antiproliferative activity against NCI60 cell line; format: functional, Homo sapiens
Mus musculus = experiment: Activity against NCI60 cell line xenograft in nude mouse by HF assay; format: functional

Compound	pGI50 [1]	Activity (Mus musculus)
N/C(S)=N/N=C/c1ccc(O)cn1	5.92	15
O=C(OC12CC3CC(CC(C3)C1)C2)c1ccc(NCc2cc(O)ccc2O)cc1	5.44	10.83
CN(Cc1cnc2nc(N)nc(N)c2n1)c1ccc(C(=O)N[C@@H](CCC(=O)O)C(=O)O)cc1 [METHOTREXATE]	5.55	16.8
COc1cc2c(c(OC)c1OC)-c1ccc(OC)c(=O)cc1[C@@H](NC(C)=O)CC2 [COLCHICINE]	5.8	19.6
Nc1ccn([C@@H]2O[C@H](CO)[C@@H](O)[C@@H]2O)c(=O)n1 [CYTARABINE]	5	11
COc1cccc2c1C(=O)c1c(O)c3c(c(O)c1C2=O)CC(O)(C(=O)CO)CC3OC1CC(N)C(O)C(C)O1 (stereo unspecified)	6.53	20.67
CCCCCCC(O)C(O)CCC(O)C1CCC(CCCCC(O)CC2=CC(C)OC2=O)O1 (stereo unspecified) [ACETOGENINS]	5.53	inactive
CCC1(O)C(=O)OCc2c1cc1n(c2=O)Cc2cc3ccccc3nc2-1 (stereo unspecified)	5.99	13.67
